Assays:
[1] = tested on: MMP- and αvβ3 integrin receptor-positive U87MG tumor; assay: In vivo NIR fluorescence imaging of U87MG tumor-bearing mice; details: for Clearance from the blood and other organs / Fluorescent signals in the tumor over time: 0.5 nmol injected
U87MG cells = assay: NIR fluorescence microscopy of fixed U87MG cells; assay type: cell-based, human
MMP-2 = assay: In vitro MMP-2 enzyme specificity; assay type: biochemical
U87MG tumor = assay: Ex vivo biodistribution in tumors and organs; design: species or system mice; details: tumors and organs removed after 4 h time point; n = 3

SMILES: CCN1C(=CC=CC=CC2=[N+](CCCCCC(=O)NCC(=O)N3CCC[C@H]3C(=O)N[C@@H](CC(C)C)C(=O)NCC(=O)N[C@H](C(=O)N[C@@H](CCCNC(=N)N)C(=O)NCC(=O)N[C@@H](CCCCN)C(=O)NCC(=O)NCC(=O)NCCCC[C@@H]3NC(=O)[C@@H](Cc4ccc(O)cc4)NC(=O)[C@H](CC(=O)O)NC(=O)CNC(=O)[C@H](CCCNC(=N)N)NC3=O)C(C)C)c3ccc4c(S(=O)(=O)O)cc(S(=O)(=O)O)cc4c3C2(C)C)C(C)(C)c2c1ccc1c(S(=O)(=O)[O-])cc(S(=O)(=O)O)cc21 [compound 5]
- Clearance from the blood and other organs ([1]; imaging for 4 h): slowly cleared from the blood and other organs
- Fluorescent signals in the tumor over time ([1]; imaging for 4 h): gradually increased fluorescent signals in the tumor
- Binding with receptor blocking by excess c(RGDyK) (U87MG cells; 30 min at 37 °C, blocking dose of c(RGDyK) 10 µM): significantly decreased binding
- Fluorescent signals on cells (U87MG cells; 30 min incubation at 37 °C, without blocking): strong positive fluorescent signals on the cell membranes

SMILES: N=C(N)NCCC[C@@H]1NC(=O)[C@H](CCCCN)NC(=O)[C@@H](Cc2ccc(O)cc2)NC(=O)[C@H](CC(=O)O)NC(=O)CNC1=O [compound 7, reference compound]
- Clearance from the blood and other organs ([1]; imaging for 4 h): slowly cleared from the blood and other organs
- Fluorescent signals in the tumor over time ([1]; imaging for 4 h): gradually increased fluorescent signals in the tumor

SMILES: CCN(CC)c1ccc2nc3ccc(N=Nc4ccc(N(C)CCCC(=O)NCCCC[C@H](NC(=O)CNC(=O)[C@H](CCCNC(=N)N)NC(=O)[C@@H](NC(=O)CNC(=O)[C@H](CC(C)C)NC(=O)[C@@H]5CCCN5C(=O)CNC(=O)CCCCC[N+]5=C(C=CC=CC=C6N(CC)c7ccc8c(S(=O)(=O)O)cc(S(=O)(=O)O)cc8c7C6(C)C)C(C)(C)c6c5ccc5c(S(=O)(=O)O)cc(S(=O)(=O)O)cc65)C(C)C)C(=O)NCC(=O)NCC(=O)NCCCC[C@@H]5NC(=O)[C@@H](Cc6ccc(O)cc6)NC(=O)[C@H](CC(=O)O)NC(=O)CNC(=O)[C@H](CCCNC(=N)N)NC5=O)cc4)cc3[n+](-c3ccccc3)c2c1 [compound 4]
- Recovery of fluorescence at different MMP-2 concentrations (MMP-2; MMP-2 0, 2, 5, 10, 20, 40 nM, 80 min incubation, n = 3): dependent on the MMP-2 concentration
- Fluorescence recovery in the presence of MMP inhibitor (MMP-2; MMP-2 with homophenylalanine-hydroxamine acid based broad spectrum MMP inhibitor): inhibited
- NIR fluorescence signal from the tumor with MMP inhibitor ([1]; 3 nmol i.v., MMP inhibitor intratumorally injected 30 min before): significantly reduced
- Tumor uptake with excess unlabeled c(RGDyK) ([1]; 30 min post-injection, c(RGDyK) 200 nmol): effectively blocked
- NIR fluorescent images compared to 6 ([1]; intravenous, 3 nmol of 4, from 1 h post-injection): brighter NIR fluorescent images compared to 6
- Visualization of MMP expression in MMP-positive tumor ([1]; intravenous, 4 at 3 nmol, imaging for 4 h): enabled visualization of MMP expression in an MMP-positive tumor
- Ex vivo biodistribution (U87MG tumor): predominantly activated in the tumors among other organs
